Test [1] concerns the target Recombinant human Cbl-b (aa 36-427) (Homo sapiens, UniProt Q13191). Put plainly: Cbl-b Biochemical Assay (TR-FRET). Particulars: read-out: TR-FRET hCbl-b IC50.
In test [2] the test system is Jurkat (clone E6-1) cells with NFAT luciferase reporter. Description: Jurkat reporter assay (NFAT Luciferase). The test is classed as cell-based. Particulars: Jurkat NFAT luciferase reporter cells, anti-CD3 stimulation, 6 hr, read-out: Jurkat NFAT EC50. In general terms: Reporter assays use an easily measured gene product as a stand-in for the process of interest.
In test [3] the target is T1, Recombinant human c-Cbl (aa 47-435) (Homo sapiens, UniProt P22681).
T1 sequence (P22681 47-435): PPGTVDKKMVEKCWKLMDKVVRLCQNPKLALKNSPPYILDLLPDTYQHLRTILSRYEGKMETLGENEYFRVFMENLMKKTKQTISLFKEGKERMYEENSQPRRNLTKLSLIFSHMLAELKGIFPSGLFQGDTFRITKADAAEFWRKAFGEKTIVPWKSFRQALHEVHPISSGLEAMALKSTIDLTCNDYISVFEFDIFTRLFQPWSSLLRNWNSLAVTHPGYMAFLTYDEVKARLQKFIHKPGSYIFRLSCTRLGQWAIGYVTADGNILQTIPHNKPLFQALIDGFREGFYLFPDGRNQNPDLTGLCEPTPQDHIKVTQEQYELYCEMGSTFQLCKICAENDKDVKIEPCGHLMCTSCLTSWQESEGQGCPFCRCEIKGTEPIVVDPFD
Put plainly: c-Cbl Biochemical Assay (TR-FRET). Particulars: hc-Cbl Biochemical Assay (TR-FRET); read-out: TR-FRET hcCbl IC50. On the technique in general: Time-resolved FRET reads energy transfer from a long-lived donor to a nearby acceptor.

Like-named read-outs stand apart in the source and are kept apart here. Some results are limits rather than exact numbers.

Chain of Recombinant human Cbl-b (aa 36-427) (Q13191 36-427): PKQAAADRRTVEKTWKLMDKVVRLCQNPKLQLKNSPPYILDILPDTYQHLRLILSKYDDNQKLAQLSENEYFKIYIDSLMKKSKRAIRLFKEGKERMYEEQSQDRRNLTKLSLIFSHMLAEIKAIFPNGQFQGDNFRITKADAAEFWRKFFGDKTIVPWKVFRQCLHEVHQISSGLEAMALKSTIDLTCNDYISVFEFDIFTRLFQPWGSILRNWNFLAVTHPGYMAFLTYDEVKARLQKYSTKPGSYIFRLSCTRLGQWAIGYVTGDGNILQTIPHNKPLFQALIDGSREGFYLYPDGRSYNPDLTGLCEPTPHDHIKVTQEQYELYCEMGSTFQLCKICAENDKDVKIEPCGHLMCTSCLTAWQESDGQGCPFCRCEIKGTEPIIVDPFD

Usually IC50 stands for the concentration that inhibits the measured activity by half. The EC50 is the concentration giving half of the maximal effect. `Cn1cnnc1-c1cc(F)ccc1-c1cccc(-c2nc3cc(CN[C@H]4CC[C@@H]4O)cc(C(F)(F)F)c3o2)c1` (racemic) [ADF-2, (1R,2R)-2-[({2-[4′-Fluoro-2′-(4-methyl-1,2,4-triazol-3-yl)-[1,1′-biphenyl]-3-yl]-7-(trifluoromethyl)-1,3-benzoxazol-5-yl}methyl)amino]cyclobutan-1-ol]: the IC50 in test [1] and in test [3] was < 200 nM throughout. Further, the EC50 in test [2] (Homo sapiens) was < 200 nM.

Take `C[C@H]1CCC[C@@H](NCc2cc(C(F)(F)F)c3oc(-c4cccc(-c5ccc(F)cc5-c5nncn5C)c4)nc3c2)C1` (racemic) [FV-2, rac-(1R,3S)—N-((2-(4′-fluoro-2′-(4-methyl-4H-1,2,4-triazol-3-yl)-[1,1′-biphenyl]-3-yl)-7-(trifluoromethyl)benzo[d]oxazol-5-yl)methyl)-3-methylcyclohexan-1-amine]: the IC50 in test [1] and in test [3] was < 200 nM each time. In test [2] (Homo sapiens), the EC50 is < 200 nM.

For the molecule `C[C@@H]1CCC[C@@H](NCc2cc(C(F)(F)F)c3oc(-c4cccc(-c5ccc(F)cc5-c5nncn5C)c4)nc3c2)C1` (racemic) [FV-3, rac-(1R,3R)—N-((2-(4′-fluoro-2′-(4-methyl-4H-1,2,4-triazol-3-yl)-[1,1′-biphenyl]-3-yl)-7-(trifluoromethyl)benzo[d]oxazol-5-yl)methyl)-3-methylcyclohexan-1-amine], the half-inhibitory concentration (IC50) in test [1] and in test [3] was < 200 nM throughout. The EC50 in test [2] (Homo sapiens) fell in the range of 200 to 1000 nM.

For `Cn1cnnc1-c1cc(F)ccc1-c1cccc(-c2nc3cc(C(NCC4CCC4)C(F)(F)F)cc(F)c3o2)c1` (racemic) [IL-6, rac-N-(Cyclobutylmethyl)-2,2,2-trifluoro-1-(7-fluoro-2-(4′-fluoro-2′-(4-methyl-4H-1,2,4-triazol-3-yl)-[1,1′-biphenyl]-3-yl)benzo[d]oxazol-5-yl)ethan-1-amine], the IC50 in test [1] and in test [3] was 1000 to 10000 nM throughout. The EC50 in test [2] (Homo sapiens) lay within 200 to 1000 nM.

Turning to `Cn1cnnc1-c1cc(F)ccc1-c1cccc(-c2nc3cc(CN[C@]4(C)CCC[C@@H]4O)cc(C(F)(F)F)c3o2)c1` (racemic) [IM-8, rac-(1S,2R)-2-(((2-(4′-fluoro-2′-(4-methyl-4H-1,2,4-triazol-3-yl)-[1,1′-biphenyl]-3-yl)-7-(trifluoromethyl)benzo[d]oxazol-5-yl)methyl)amino)-2-methylcyclopentan-1-ol], the IC50 in test [1] and in test [3] was < 200 nM throughout. In addition, in test [2] (Homo sapiens), the concentration for a half-maximal effect (EC50) was < 200 nM.

As for `Cn1cnnc1-c1cc(F)ccc1-c1cccc(-c2nc3cc(C(NCC4CCC4)C(F)(F)F)cc(C4CC4)c3o2)c1` (racemic) [IO-4, rac-N-(Cyclobutylmethyl)-1-(7-cyclopropyl-2-(4′-fluoro-2′-(4-methyl-4H-1,2,4-triazol-3-yl)-[1,1′-biphenyl]-3-yl)benzo[d]oxazol-5-yl)-2,2,2-trifluoroethan-1-amine], the IC50 in test [1] and in test [3] was 1000 to 10000 nM in each case. In test [2] (Homo sapiens), the EC50 was 1000 to 10000 nM.

Turning to `Cn1cnnc1-c1cc(F)ccc1-c1cccc(-c2nc3cc(CN[C@H]4CC[C@@H]4O)cc(C(F)(F)F)c3o2)c1` (single isomer, unassigned) [ADG-1], the IC50 in test [1] and in test [3] was < 200 nM in each case. Moreover, in test [2] (Homo sapiens), the EC50 is < 200 nM.

Take `Cn1cnnc1-c1cc(F)ccc1-c1cccc(-c2nc3cc(CN[C@H]4CC[C@@H]4O)cc(C(F)(F)F)c3o2)c1` (single isomer, unassigned) [ADH-1]: the IC50 in test [1] and in test [3] was < 200 nM in each case. Also, the concentration giving a half-maximal response (EC50) in test [2] was < 200 nM.

As for `Cn1cnnc1-c1cc(F)ccc1-c1cccc(-c2nc3cc([C@H](CO)N4CCC4)cc(C(F)(F)F)c3o2)c1` (single isomer, unassigned) [DO-6], the 50% inhibitory concentration (IC50) in test [1] is < 200 nM; in test [3], 200 to 1000 nM. For the same molecule, the EC50 in test [2] (Homo sapiens) is 1000 to 10000 nM.

For `Cn1cnnc1-c1cc(F)ccc1-c1cccc(-c2nc3cc([C@@H](CO)N4CCC4)cc(C(F)(F)F)c3o2)c1` (single isomer, unassigned) [DO-7], the 50% inhibitory concentration (IC50) in test [1] was < 200 nM; in test [3], 200 to 1000 nM. In test [2] (Homo sapiens), the EC50 fell in the range of 1000 to 10000 nM.

As to `Cn1cnnc1-c1cc(F)ccc1-c1cccc(-c2nc3cc(CNC[C@H](O)C4CC4)cc(C(F)(F)F)c3o2)c1` (single isomer, unassigned) [DT-2], the IC50 in test [1] and in test [3] was < 200 nM throughout. Also, the 50% effective concentration (EC50) in test [2] (Homo sapiens) was < 200 nM.

As to `Cn1cnnc1-c1cc(F)ccc1-c1cccc(-c2nc3cc(CNC[C@@H](O)C4CC4)cc(C(F)(F)F)c3o2)c1` (single isomer, unassigned) [DT-3], the IC50 in test [1] and in test [3] was < 200 nM throughout. The EC50 in test [2] (Homo sapiens) was < 200 nM.

With `CO[C@H](CO)c1cc(C(F)(F)F)c2oc(-c3cccc(-c4ccc(F)cc4-c4nncn4C)c3)nc2c1` (single isomer, unassigned) [EG-2], the 50% inhibitory concentration (IC50) in test [1] was < 200 nM; in test [3], 200 to 1000 nM. In addition, in test [2] (Homo sapiens), the concentration giving a half-maximal response (EC50) lay in the range of 1000 to 10000 nM.

As for `CO[C@@H](CO)c1cc(C(F)(F)F)c2oc(-c3cccc(-c4ccc(F)cc4-c4nncn4C)c3)nc2c1` (single isomer, unassigned) [EG-3], the concentration for half-maximal inhibition (IC50) in test [1] is < 200 nM; in test [3], 200 to 1000 nM. The EC50 in test [2] (Homo sapiens) is 1000 to 10000 nM.

In the case of `CC(NCC1(O)CCC1)c1cc(F)c2oc(-c3cc(-c4ccc(F)cc4-c4nncn4C)cc(C4CC4)n3)nc2c1` (stereo in doubt) [AFQ-6, 1-({[(1S)-1-(2-{6-Cyclopropyl-4-[4-fluoro-2-(4-methyl-1,2,4-triazol-3-yl)phenyl]pyridin-2-yl}-7-fluoro-1,3-benzoxazol-5-yl)ethyl]amino}methyl)cyclobutan-1-ol], the half-inhibitory concentration (IC50) in test [1] and in test [3] was < 200 nM each time. Besides, in test [2] (Homo sapiens), the EC50 is < 200 nM.

As to `CC(NCC1(O)CCC1)c1cc(F)c2oc(-c3cc(-c4ccc(F)cc4-c4nncn4C)cc(C4CC4)n3)nc2c1` (stereo in doubt) [AFR-1, 1-({[(1R)-1-(2-{6-Cyclopropyl-4-[4-fluoro-2-(4-methyl-1,2,4-triazol-3-yl)phenyl]pyridin-2-yl}-7-fluoro-1,3-benzoxazol-5-yl)ethyl]amino}methyl)cyclobutan-1-ol], the IC50 in test [1] and in test [3] was < 200 nM throughout. For the same molecule, the half-maximal effective concentration (EC50) in test [2] (Homo sapiens) was < 200 nM.

In the case of `CO[C@H]1CCCC1NCc1cc(C(F)(F)F)c2oc(-c3cccc(-c4ccc(F)cc4-c4nncn4C)c3)nc2c1` (stereo in doubt) [CV-2, (1S,2S)—N-((2-(4′-Fluoro-2′-(4-methyl-4H-1,2,4-triazol-3-yl)-[1,1′-biphenyl]-3-yl)-7-(trifluoromethyl)benzo[d]oxazol-5-yl)methyl)-2-methoxycyclopentan-1-amine], the 50% inhibitory concentration (IC50) in test [1] and in test [3] was < 200 nM each time. Moreover, the half-maximal effective concentration (EC50) in test [2] (Homo sapiens) was 200 to 1000 nM.

Consider `COCCNCc1cc(C(F)(F)F)c2oc(-c3cccc(-c4ccc(F)cc4-c4nncn4C)c3)nc2c1` [AA-2, N-((2-(4′-Fluoro-2′-(4-methyl-4H-1,2,4-triazol-3-yl)-[1,1′-biphenyl]-3-yl)-7-(trifluoromethyl)benzo[d]oxazol-5-yl)methyl)-2-methoxyethan-1-amine], for which the 50% inhibitory concentration (IC50) in test [1] was < 200 nM; in test [3] it was 1000 to 10000 nM. In test [2] (Homo sapiens), the concentration for a half-maximal effect (EC50) is 200 to 1000 nM.

`CC(c1cc(C(F)(F)F)c2oc(-c3cccc(C4(Cc5nncn5C)COC4)c3)nc2c1)N1CCC2(CC2)C1` (centres unmarked) [AAB-9, 5-(1-{5-Azaspiro[2.4]heptan-5-yl}ethyl)-2-(3-{3-[(4-methyl-1,2,4-triazol-3-yl)methyl]oxetan-3-yl}phenyl)-7-(trifluoromethyl)-1,3-benzoxazole]: the IC50 in test [1] is < 200 nM; in test [3], 1000 to 10000 nM. In addition, the EC50 in test [2] (Homo sapiens) is 200 to 1000 nM.

For `C[C@H](c1cc(C(F)(F)F)c2oc(-c3cccc(C4(Cc5nncn5C)COC4)c3)nc2c1)N1CCC2(CC2)C1` [AAD-1, 5-[(1R)-1-{5-azaspiro[2.4]heptan-5-yl}ethyl]-2-(3-{3-[(4-methyl-1,2,4-triazol-3-yl)methyl]oxetan-3-yl}phenyl)-7-(trifluoromethyl)-1,3-benzoxazole], the IC50 in test [1] was < 200 nM; in test [3], 1000 to 10000 nM. The EC50 in test [2] (Homo sapiens) was 200 to 1000 nM.

In the case of `C[C@@H](c1cc(C(F)(F)F)c2oc(-c3cccc(C4(Cc5nncn5C)COC4)c3)nc2c1)N1CCC2(CC2)C1` [AAE-1, 5-[(1S)-1-{5-azaspiro[2.4]heptan-5-yl}ethyl]-2-(3-{3-[(4-methyl-1,2,4-triazol-3-yl)methyl]oxetan-3-yl}phenyl)-7-(trifluoromethyl)-1,3-benzoxazole], the IC50 in test [1] and in test [3] was < 200 nM throughout. Further, in test [2] (Homo sapiens), the EC50 was 200 to 1000 nM.

Consider `Cn1cnnc1-c1cc(F)ccc1-c1cccc(-c2nc3cc(NCCC4CCC4)cc(C(F)(F)F)c3o2)c1` [HU-1, N-(2-Cyclobutylethyl)-2-(4′-fluoro-2′-(4-methyl-4H-1,2,4-triazol-3-yl)-[1,1′-biphenyl]-3-yl)-7-(trifluoromethyl)benzo[d]oxazol-5-amine], for which, in test [1], the IC50 lay within 1000 to 10000 nM. For the same molecule, the EC50 in test [2] (Homo sapiens) was in the range of 10000 to 50000 nM.

(Values after patent US20250163038A1, “CBL-B MODULATORS AND USES THEREOF” (Nimbus Clio, Inc., priority 2021, published 2025).)
